In ChEMBL document CHEMBL2380218, “A facile chemo-, regio- and stereoselective synthesis and cholinesterase inhibitory activity of spirooxindole-pyrrolizine-piperidine hybrids” (Bioorg Med Chem Lett, 2013) one finds IC50 data, which are given here for eleven molecules.

For one experiment, the target named is Acetylcholinesterase (Homo sapiens, UniProt P22303). Put plainly: Inhibition of AChE (unknown origin) using acetylthiocholine iodide as substrate incubated for 15 mins prior to substrate addition measured after 30 mins by Ellman's method. For orientation: Ellman's reagent forms a yellow product with free thiols.
The target in another experiment is Cholinesterase (Equus caballus, UniProt P81908). Put plainly: Inhibition of equine serum BuChE using S-butyrylthiocholine chloride as substrate incubated for 15 mins prior to substrate addition measured after 30 mins by Ellman's method.
Chain of Cholinesterase (P81908 whole entry): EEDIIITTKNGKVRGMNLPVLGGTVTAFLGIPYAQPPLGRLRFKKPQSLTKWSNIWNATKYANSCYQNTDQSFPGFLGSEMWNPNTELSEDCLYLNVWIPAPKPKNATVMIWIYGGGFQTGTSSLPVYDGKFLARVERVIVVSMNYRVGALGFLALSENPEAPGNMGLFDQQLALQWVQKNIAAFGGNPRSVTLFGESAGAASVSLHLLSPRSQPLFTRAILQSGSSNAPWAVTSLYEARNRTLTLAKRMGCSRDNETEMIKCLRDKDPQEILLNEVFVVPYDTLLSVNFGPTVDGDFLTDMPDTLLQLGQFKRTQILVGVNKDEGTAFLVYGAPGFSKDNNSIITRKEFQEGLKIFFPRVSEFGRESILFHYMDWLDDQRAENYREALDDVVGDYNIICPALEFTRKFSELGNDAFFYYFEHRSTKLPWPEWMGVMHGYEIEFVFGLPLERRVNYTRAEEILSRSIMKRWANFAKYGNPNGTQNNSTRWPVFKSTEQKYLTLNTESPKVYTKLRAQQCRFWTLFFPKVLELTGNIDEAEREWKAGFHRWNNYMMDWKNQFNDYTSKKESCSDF

Chain of Acetylcholinesterase (P22303 whole entry): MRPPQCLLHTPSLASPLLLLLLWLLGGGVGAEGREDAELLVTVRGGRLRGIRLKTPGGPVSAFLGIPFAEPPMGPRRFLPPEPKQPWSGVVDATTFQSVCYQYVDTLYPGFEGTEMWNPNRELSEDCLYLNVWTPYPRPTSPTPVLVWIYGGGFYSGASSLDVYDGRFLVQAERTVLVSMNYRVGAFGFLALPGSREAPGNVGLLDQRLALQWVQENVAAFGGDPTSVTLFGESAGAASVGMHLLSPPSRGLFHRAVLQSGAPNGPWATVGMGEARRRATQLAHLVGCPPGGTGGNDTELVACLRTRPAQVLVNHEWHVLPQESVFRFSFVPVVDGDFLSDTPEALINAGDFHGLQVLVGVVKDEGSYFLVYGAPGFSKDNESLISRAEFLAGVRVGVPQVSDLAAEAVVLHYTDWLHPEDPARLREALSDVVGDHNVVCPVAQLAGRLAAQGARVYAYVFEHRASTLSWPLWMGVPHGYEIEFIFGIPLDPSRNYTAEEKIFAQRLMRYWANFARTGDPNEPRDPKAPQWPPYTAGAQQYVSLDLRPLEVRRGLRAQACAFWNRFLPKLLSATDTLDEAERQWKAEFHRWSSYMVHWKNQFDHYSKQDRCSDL

As to `O=C1/C(=C/c2ccccc2Cl)CN(C(=O)[C@H]2C[C@H]3CCCN3[C@]23C(=O)Nc2cc(Cl)ccc23)C/C1=C\c1ccccc1Cl`, the figures for the IC50 at Acetylcholinesterase and at Cholinesterase were 5.08 µM and 17.4 µM, respectively.
Turning to `O=C1/C(=C/c2ccccc2)CN(C(=O)[C@H]2C[C@H]3CCCN3[C@]23C(=O)Nc2cc(Cl)ccc23)C/C1=C\c1ccccc1`, the IC50 (in general, the midpoint of a concentration-inhibition curve) against Acetylcholinesterase was 15.7 µM; against Cholinesterase it was 15.4 µM.
For `O=C1/C(=C/c2ccccc2F)CN(C(=O)[C@H]2C[C@H]3CCCN3[C@]23C(=O)Nc2cc(Cl)ccc23)C/C1=C\c1ccccc1F`, the half-inhibitory concentration (IC50) at Acetylcholinesterase was 29.5 µM; against Cholinesterase, 3.13 µM.
In the same order, the values of `Cc1ccccc1/C=C1\CN(C(=O)[C@H]2C[C@H]3CCCN3[C@]23C(=O)Nc2cc(Cl)ccc23)C/C(=C\c2ccccc2C)C1=O` are 11.2 µM and 15.1 µM.
In the same order, the values of `Cc1ccc(/C=C2\CN(C(=O)[C@H]3C[C@H]4CCCN4[C@]34C(=O)Nc3cc(Cl)ccc34)C/C(=C\c3ccc(C)cc3)C2=O)cc1` are 7.6 µM and 22.2 µM.
With `O=C1/C(=C/c2ccc(F)cc2)CN(C(=O)[C@H]2C[C@H]3CCCN3[C@]23C(=O)Nc2cc(Cl)ccc23)C/C1=C\c1ccc(F)cc1`, the IC50 at Acetylcholinesterase was 22.3 µM; on Cholinesterase, 3.64 µM.
On to `O=C1/C(=C/c2ccc(Cl)cc2Cl)CN(C(=O)[C@H]2C[C@H]3CCCN3[C@]23C(=O)Nc2cc(Cl)ccc23)C/C1=C\c1ccc(Cl)cc1Cl`, for which the half-maximal inhibitory concentration (IC50) on Acetylcholinesterase came to 3.33 µM; at Cholinesterase it was 20.1 µM.
For the molecule `COc1ccccc1/C=C1\CN(C(=O)[C@H]2C[C@H]3CCCN3[C@]23C(=O)Nc2cc(Cl)ccc23)C/C(=C\c2ccccc2OC)C1=O`, the half-maximal inhibitory concentration (IC50) against Acetylcholinesterase came to 14.5 µM; against Cholinesterase, 7.82 µM.
As for `O=C1/C(=C/c2cccc3ccccc23)CN(C(=O)[C@H]2C[C@H]3CCCN3[C@]23C(=O)Nc2cc(Cl)ccc23)C/C1=C\c1cccc2ccccc12`, the half-maximal inhibitory concentration (IC50) at Acetylcholinesterase was found to be 5.81 µM; on Cholinesterase, 9.65 µM.
In the same order, the values of `O=C1/C(=C/c2cccc([N+](=O)[O-])c2)CN(C(=O)[C@H]2C[C@H]3CCCN3[C@]23C(=O)Nc2cc(Cl)ccc23)C/C1=C\c1cccc([N+](=O)[O-])c1` are 4.28 µM and 17.2 µM.
Consider `O=C1/C(=C/c2ccc(Cl)cc2)CN(C(=O)[C@H]2C[C@H]3CCCN3[C@]23C(=O)Nc2cc(Cl)ccc23)C/C1=C\c1ccc(Cl)cc1`, for which the IC50 against Acetylcholinesterase was determined as 3.36 µM; at Cholinesterase, 28.2 µM.
